Source: paper PMC9200803, “Design, synthesis, and biological evaluation of tetrahydroquinolinones and tetrahydroquinolines with anticancer activity” (Scientific Reports, 2022)

Experiments:
Format in all cases: cell-based, human
[1] = system: HCT-116 cells; experiment: Western blot protein expression in HCT-116 cells
Method: HCT-116 cells were seeded into 60-mm Petri dishes at a density of 1.5 × 10^6 cells per dish and incubated overnight. […] After treatment, cells were lysed in Laemmli buffer with a protease and phosphatase inhibitors cocktail (Roche), followed by sonification The lysate was cleared by centrifuging at 16,000×g for 15 min at 12 °C. The supernatant was collected, and the extract was quantified for protein using the DC Protein Assay (Bio-Rad). Proteins were resolved by 10% or 12% sodium dodecyl sulfate–polyacrylamide gel electrophoresis and transferred to polyvinylidene difluoride membranes (Bio-Rad). Membranes were blocked using 5% (w/v) bovine serum albumin (Sigma-Aldrich) in 1× TBST (pH 7.4 and 0.1% Tween-20) for 1 h at room temperature and subsequently incubated overnight with primary antibodies at 4 °C. The blots were washed thrice with TBST and then incubated with horseradish peroxidase-conjugated antibodies for 1 h at room temperature. After washing, the membranes were evaluated for detecting the protein bands using enhanced chemiluminescence detection reagent kit (Thermo Fisher) and ChemiDoc XRS + Imaging System (Bio-Rad). The band intensity was measured using ImageLab 5.2 software (Bio-Rad).

[2] = system: HCT-116 cells; experiment: MTT cell viability assay, HCT-116; details: for IC50: MTT, 72 h, IC50 ± SD
Method: To evaluate the effects of the newly synthesized tetrahydroquinolin-2(1H)-one derivatives on cell viability, we treated human colon cancer cells HCT-116, human breast cancer cells MCF-7, and human non-small cell lung cancer cells A-549 with different concentrations of the compounds for 72 h. After incubation, the MTT (3-(4,5-dimethylthiazol-2-yl)-2,5-diphenyltetrazolium bromide) assay was performed and the cytotoxic potency of compounds (expressed in IC50) on the cells was determined in comparison to control cells treated with 1% of dimethyl sulfoxide (DMSO) (Table 1). […] We also compared the activity of 20d and 19b to the reference control drug Cisplatin, which is widely used in chemotherapy.
A-549 (CCL-185) and MCF-7 ([…]) cells were cultured in RPMI-1640 medium, while HCT-116 (CVCL-427), (hMLH1)-deficient (MMR^–) and hMLH1-proficient (MMR^+) RKO cells were cultured in McCoy’s 5A medium. The culture media were supplemented with 10% fetal bovine serum, 2 mM L-glutamine, and antibiotics (penicillin 62.6 µg/ml and streptomycin 40 µg/ml). Cultivation of cell lines was carried out at 37 °C under a humidified atmosphere containing 5% CO2, and the cultures were routinely screened for Mycoplasma contamination. A-549, MCF-7, and HCT-116 cells were obtained from American Type Culture Collection (ATCC), while RKO colon carcinoma cells were a kind gift of Dr Timothy Kinsella (Brown University, USA).
The viability of cells was determined in response to the newly synthesized compounds using the MTT (Sigma-Aldrich) assay. Briefly, cells were seeded into 96-well plates and allowed to attach overnight. Then, cells were exposed to various concentrations of compounds for 24, 48 or 72 h. Negative controls were treated with the same amount of DMSO solvent (1%). After treatment, the MTT solution (0.4 mg/ml) was added to each well and allowed to react with cells for 2–3 h at 37 °C. Next, the medium was removed, the formazan product formed was dissolved in 100 μl of DMSO, and the absorbance was determined at 540 nm using an ASYS UVM340 microplate reader (Biochrom Ltd.). The IC50 value, which represents the concentration of the compound required to inhibit cell growth by 50% compared to vehicle, was calculated using GraphPad Prism 8 software based on the curves plotting survival against dose averaged from at least three independent experiments.

[3] = system: hMLH1-deficient RKO cells; experiment: ROS level, H2DCFDA probe, MMR-deficient RKO; details: 1 h of exposure, vs control
Method: Then, we confirmed whether the induction of cellular stress by 20d is related to MMR deficiency by exposing MMR-deficient and MMR-proficient cells to the compound for different times and measuring the ROS levels. Our results indicated a greater increase in the level of ROS after 1 h of exposure in 20d-treated MMR-deficient cells than in MMR-proficient cells (54.71 ± 2.70% and 22.27 ± 1.7%, respectively), in comparison to control (Fig. 7).
The […] ROS levels were determined using an H2DCFDA (2′,7′-dichlorodihydrofluorescein diacetate) probe (Thermo Fisher) following the manufacturer’s protocol. […] DMSO (1%, Merck) and 250 μM H2O2 were used as a negative and positive control, respectively. NAC (500 μM, Sigma-Aldrich) was used as an ROS scavenger to confirm the ROS activity. After treatment with 20d and 19b, cells were incubated with H2DCFDA at 37 °C for 30 min. Subsequently, cells were harvested by trypsinization, rinsed with PBS, and stained with 7-AAD (Thermo Fisher). Finally, the stained cells were analyzed by flow cytometry using a Guava easyCyte 8 cell sorter (Merck Millipore) and FlowJo v10 software.

[4] = system: hMLH1-deficient (MMR–) RKO cells; experiment: MTT cell viability assay, hMLH1-deficient (MMR–) RKO
Excerpt: We further attempted to determine whether 20d-induced cancer cell death was related to the induction of ROS production in HCT-116 cells. For this purpose, we pretreated cells with N-acetyl-L-cysteine (NAC), which is a commonly used antioxidant and ROS scavenger. […] HCT-116 cell line has high-frequency microsatellite instability, which is associated with deficient DNA mismatch repair (MMR)[31]. The MMR system corrects DNA-mismatched and insertion–deletion loop bases generated during DNA replication. One of the key proteins involved in the MMR pathway is MLH1, which is mutated or epigenetically silenced in many MMR-deficient (MMR^–) cells, such as HCT-116[33]. To further determine the selectivity for MMR deficiency, we analyzed the cell viability of human MutL homologue 1 (hMLH1)-deficient (MMR^–) and hMLH1-proficient (MMR^+) RKO human colon carcinoma cell lines. The latter was established by transfecting hMLH1 cDNA into MMR^− RKO cell line[34]. In MMR^– RKO cells, the hMLH1 gene promoter was silenced transcriptionally by hypermethylation. […]
The viability of cells was determined in response to the newly synthesized compounds using the MTT (Sigma-Aldrich) assay. […] Next, the medium was removed, the formazan product formed was dissolved in 100 μl of DMSO, and the absorbance was determined at 540 nm using an ASYS UVM340 microplate reader (Biochrom Ltd.). […]

[5] = system: HEK293 cells; experiment: MTT cell viability assay, HEK293; details: Homo sapiens, HEK293, IC50 ± SD

O=C(Nc1cccc(F)c1)OC1CCCc2c(-c3ccccc3)cc(=O)[nH]c21 (stereo not shown) [Compound 20d, (2-oxo-4-phenyl-5,6,7,8-tetrahydroquinolin-8-yl) N-(3-fluorophenyl)carbamate]
expression of LAMP-1 protein ([1]; HCT-116): time-dependent increase
expression of vimentin ([1]; HCT-116): significantly altered
level of phospho-AKT (Ser473) ([1]; HCT-116): significantly reduced
level of phospho-mTOR (Ser2448) ([1]; HCT-116): significantly reduced
expression of p-γ-H2AX ([1]; HCT-116, 24–72 h, immunoblot and immunofluorescence): significantly increased
cyclin D1 expression ([1]; HCT-116, 72 h, vs DMSO): slight inhibition
β-catenin ([1]; HCT-116, even after 24 h): caused the cleavage of β-catenin
levels of LC3-II ([1]; HCT-116, vs control): higher
expression of p21 ([1]; HCT-116, vs control, p < 0.001): markedly higher
expression of p27 ([1]; HCT-116, vs control, p < 0.001): markedly higher
expression of p53 ([1]; HCT-116, vs control, p < 0.001): markedly higher
expression of c-myc ([1]; HCT-116, vs vehicle): downregulated
cytotoxic effect after 24 h and 48 h exposure ([2]; HCT-116, 10 and 20 µM): slight cytotoxic effect
IC50 ([2]; Homo sapiens, HCT-116, 72 h): ~13 µM
IC50 [2]: 12 ± 0.57 µM
increase in the level of ROS [3]: 54.71 ± 2.70%
IC50 ([4]; Homo sapiens, RKO, mean ± SD): 1.21 ± 0.13 µM
fold higher sensitivity of MMR– RKO vs MMR+ RKO cells ([4]; p < 0.001): 3.95 fold
IC50 [5]: > 50 µM
